We go through one compound from US20180185431A1, “HOVENIAE SEMEN CUM FRUCTRUS EXTRACT COMPOSITIONS AND METHOD OF USE” (ARIBIO Co., Ltd., priority 2016, published 2018).

Molecules are shown by their SMILES.

The subject of one test is HepG2 cells. Briefly: MTT assay, tBHP-induced cytotoxicity (cytoprotection). The test is classed as cell-based, human. The note with it: SFN 30 M pretreatment, 150 M tBHP.
Test [1] has as its system ARE (Nrf2), pGL4.37 transfected HepG2 cells. Briefly: ARE-driven luciferase reporter gene assay (Nrf2 transactivation). The test is classed as cell-based, human. Particulars: SFN 30 M. On the procedure: To examine the possibility that ARE activation by Nrf2 is associated with HSCF extracts-mediated cytoprotection, pGL4.37 tranfected HepG2 cells (5×10^5 cells/well) were plated in 12-well overnight, serum starved for 12 hrs, and then subsequently exposed to 30-1000 μg/ml HSCF extracts for 18 hrs. ARE-driven luciferase activity was measured in the cell treated with HSCF extracts. […] The relative ARE-luciferase activities were 1.39±0.88, 1.62±1.08, 1.91±1.22, and 3.25±0.88 in […] HSCF extracts treated cells, respectively (FIG. 3).
ARE-driven reporter gene construct, pGL4.37 [luc2P/ARE/Hygro] was obtained from promega (Madison, Wis., USA). HepG2 cells were stably transfected with pGL4.37 plasmid using Fugene HD (Promega, Madison, Wis., USA) according to manufacturer's instruction and 80 µg/mL hygromycin was added to select the resistant colonies. The resistant colonies were pooled and used for reporter gene analysis. […] Luciferase activities in cell lysates were measured by adding luciferase assay reagent (Promega, Madison, Wis., USA) using […] automatic multimode reader (Model Infinite 200 PRO; Tecan, Männedorf, Switzerland). The relative luciferase activity was calculated as the relative change to protein content determined by bicinchoninic acid (BCA) method.
A general note: Reporter assays use an easily measured gene product as a stand-in for the process of interest.

Consider `C[S+]([O-])CCCCN=C=S` (centres unmarked) [SFN, Sulforaphane], for which, in the test on HepG2 cells, the “protection from tBHP-mediated cell death” value is “significantly protected from tBHP-mediated cell death”. Also, the ARE-driven luciferase activity entry in test [1] was “significantly increased luciferase activity”.
